Experimental data: DBAASP
In brackets after ≈: the same amount, converted by molar mass.

Experiments:
Assay in all cases: ≥ marks a high value that may be exact or a test limit, other limits are often not marked, values filed in µg/mL are converted to µM
[1] = test system: Bacillus megaterium ATCC 10778
Candida albicans MDM8 = test system: Candida albicans MDM8
[2] = test system: Candida tropicalis IOC 4560
[3] = test system: Enterobacter cloacae beta-12
Escherichia coli SBS 363 = test system: Escherichia coli SBS 363
Micrococcus luteus A270 = test system: Micrococcus luteus A270
[4] = test system: Serratia marcescens ATCC 4112
[5] = test system: Staphylococcus aureus ATCC 29213
[6] = test system: Staphylococcus epidermidis ATCC 12228
[7] = test system: Bacillus subtilis ATCC 6633
[8] = test system: Pseudomonas aeruginosa ATCC 27853
[9] = test system: Staphylococcus aureus SH1000
[10] = test system: Acinetobacter baumannii ATCC 19606
[11] = test system: Candida albicans ATCC 90028
[12] = test system: Cryptococcus neoformans ATCC 208821
[13] = test system: Escherichia coli ATCC 25922
[14] = test system: Klebsiella pneumoniae ATCC 700603
[15] = test system: Staphylococcus aureus ATCC 43300
Acinetobacter baumannii = test system: Acinetobacter baumannii
[16] = test system: Bacillus cereus CGMCC 1.932
[17] = test system: Bacillus subtilis CMCC 63501
[18] = test system: Enterococcus faecalis ATCC 29212
Escherichia coli 078 = test system: Escherichia coli 078
Escherichia coli K88 = test system: Escherichia coli K88
Escherichia coli K99 = test system: Escherichia coli K99
Escherichia coli UB1005 = test system: Escherichia coli UB1005
[19] = test system: Listeria monocytogenes CGMCC 1.1075
[20] = test system: Pseudomonas aeruginosa PAO1
[21] = test system: Salmonella enterica subsp. enterica serovar Pullorum ATCC 7913
[22] = test system: Salmonella enterica subsp. enterica serovar Typhimurium ATCC 14028
[23] = test system: Salmonella typhimurium ATCC 7731
[24] = test system: Staphylococcus aureus ATCC 25923
[25] = test system: Candida albicans ATCC 10231
[26] = test system: Cryptococcus neoformans ATCC 32264

Row | MIC [1] [µM] | MIC (Candida albicans MDM8) [µM] | MIC [2] [µM] | MIC [3] [µM] | MIC (Escherichia coli SBS 363) [µM] | MIC (Micrococcus luteus A270) [µM] | MIC [4] [µM] | MIC [5] [µM] | MIC [6] [µM] | MIC [8] [µM] | MIC [9] [µM] | MIC [15] [µM] | MIC (Acinetobacter baumannii) [µM] | MIC [16] [µM] | MIC [17] [µM] | MIC [18] [µM] | MIC (Escherichia coli 078) [µM] | MIC (Escherichia coli K88) [µM] | MIC (Escherichia coli K99) [µM] | MIC (Escherichia coli UB1005) [µM] | other results | SMILES
1 | 0.8 (≈ 1.2 µg/mL) | 1.6 (≈ 2.41 µg/mL) | 0.8 (≈ 1.2 µg/mL) | 6.3 (≈ 9.49 µg/mL) | 3.1 (≈ 4.67 µg/mL) | 0.8 (≈ 1.2 µg/mL) | 0.2 (≈ 0.301 µg/mL) | 0.8 (≈ 1.2 µg/mL) | 6.3 (≈ 9.49 µg/mL) | – | – | – | – | – | – | – | – | – | – | – | – | CC(C)C[C@H](NC(=O)[C@H](C)NC(=O)CNC(=O)[C@H](CC(C)C)NC(=O)[C@@H](N)Cc1ccccc1)C(=O)N[C@@H](Cc1c[nH]c2ccccc12)C(=O)N[C@@H](CCCCN)C(=O)N[C@H](C(=O)N[C@@H](C)C(=O)N[C@@H](CCCCN)C(=O)N[C@@H](CCCCN)C(=O)N[C@H](C(=O)N[C@@H](Cc1ccccc1)C(N)=O)C(C)C)C(C)C [FLGALWKVAKKVF]
2 | 3.1 (≈ 4.54 µg/mL) | 3.1 (≈ 4.54 µg/mL) | 3.1 (≈ 4.54 µg/mL) | ≥ 50 | 0.8 (≈ 1.17 µg/mL) | 0.8 (≈ 1.17 µg/mL) | 0.4 (≈ 0.586 µg/mL) | 0.8 (≈ 1.17 µg/mL) | – | > 50 | – | – | – | – | – | – | – | – | – | – | MIC [7]: 0.8 µM (≈ 1.17 µg/mL) | CC(C)C[C@H](NC(=O)[C@H](C)NC(=O)CNC(=O)[C@H](CC(C)C)NC(=O)[C@@H](N)Cc1ccccc1)C(=O)N[C@@H](Cc1c[nH]c2ccccc12)C(=O)N[C@@H](CC(N)=O)C(=O)N[C@H](C(=O)N[C@@H](C)C(=O)N[C@@H](CCCCN)C(=O)N[C@@H](CO)C(=O)N[C@@H](CC(C)C)C(=O)N[C@@H](Cc1ccccc1)C(N)=O)C(C)C [FLGALWNVAKSLF]
3 | – | – | – | – | – | – | – | – | – | – | ≥ 100 | – | – | – | – | – | – | – | – | – | – | CC[C@H](C)[C@H](NC(=O)[C@H](CC(=O)O)NC(=O)[C@H](Cc1ccccc1)NC(=O)[C@H](CC(C)C)NC(=O)CN)C(=O)N[C@@H](CC(C)C)C(=O)N[C@@H](CCCCN)C(=O)N[C@@H](CCCCN)C(=O)N[C@@H](CC(C)C)C(=O)N[C@@H](CC(C)C)C(=O)N[C@@H](CCCCN)C(=O)N[C@@H](CC(C)C)C(=O)N[C@@H](CC(C)C)C(=O)N[C@@H](CCCCN)C(N)=O [GLFDILKKLLKLLK]
4 | – | – | – | – | – | – | – | – | – | > 19 | ≥ 33 | > 19 | – | – | – | – | – | – | – | – | MIC [10]: 1 µM (≈ 1.62 µg/mL); MIC [11]: 12 µM (≈ 19.4 µg/mL); MIC [12]: 1 µM (≈ 1.62 µg/mL); MIC [13]: > 19 µM; MIC [14]: > 19 µM | CC(C)C[C@H](NC(=O)CN)C(=O)N[C@@H](CC(C)C)C(=O)N[C@@H](CCCCN)C(=O)N[C@@H](CC(C)C)C(=O)N[C@@H](CC(C)C)C(=O)N[C@@H](CCCCN)C(=O)N[C@@H](CCCCN)C(=O)N[C@@H](CC(C)C)C(=O)N[C@@H](CC(C)C)C(=O)N[C@@H](CCCCN)C(=O)N[C@@H](CC(C)C)C(=O)N[C@@H](CC(C)C)C(=O)N[C@@H](CCCCN)C(N)=O [GLLKLLKKLLKLLK]
5 | – | – | – | – | – | – | – | – | 2 (≈ 3.49 µg/mL) | 4 (≈ 6.97 µg/mL) | – | 2 (≈ 3.49 µg/mL) | 1 (≈ 1.74 µg/mL) | 8 (≈ 13.9 µg/mL) | 4 (≈ 6.97 µg/mL) | > 32 | 2 (≈ 3.49 µg/mL) | 2 (≈ 3.49 µg/mL) | 4 (≈ 6.97 µg/mL) | 2 (≈ 3.49 µg/mL) | MIC [19]: 2 µM (≈ 3.49 µg/mL); MIC [20]: 4 µM (≈ 6.97 µg/mL); MIC [21]: 2 µM (≈ 3.49 µg/mL); MIC [22]: 4 µM (≈ 6.97 µg/mL); MIC [23]: 4 µM (≈ 6.97 µg/mL); MIC [24]: 2 µM (≈ 3.49 µg/mL) | CC(C)C[C@H](NC(=O)[C@H](CCCN=C(N)N)NC(=O)[C@H](Cc1c[nH]c2ccccc12)NC(=O)[C@H](CCCN=C(N)N)NC(=O)[C@H](Cc1c[nH]c2ccccc12)NC(=O)[C@H](Cc1c[nH]c2ccccc12)NC(=O)[C@H](Cc1c[nH]c2ccccc12)NC(=O)[C@H](CCCN=C(N)N)NC(=O)[C@H](Cc1c[nH]c2ccccc12)NC(=O)[C@H](CCCN=C(N)N)NC(=O)CN)C(N)=O [GRWRWWWRWRL]
6 | – | – | – | – | – | – | – | – | 2 (≈ 3.4 µg/mL) | 4 (≈ 6.8 µg/mL) | – | 2 (≈ 3.4 µg/mL) | 1 (≈ 1.7 µg/mL) | 2 (≈ 3.4 µg/mL) | 0.5 (≈ 0.85 µg/mL) | 4 (≈ 6.8 µg/mL) | 8 (≈ 13.6 µg/mL) | 2 (≈ 3.4 µg/mL) | 4 (≈ 6.8 µg/mL) | 2 (≈ 3.4 µg/mL) | MIC [19]: 2 µM (≈ 3.4 µg/mL); MIC [20]: 2 µM (≈ 3.4 µg/mL); MIC [21]: 2 µM (≈ 3.4 µg/mL); MIC [22]: 4 µM (≈ 6.8 µg/mL); MIC [23]: 4 µM (≈ 6.8 µg/mL); MIC [24]: 2 µM (≈ 3.4 µg/mL) | C[C@H](NC(=O)[C@H](Cc1c[nH]c2ccccc12)NC(=O)[C@H](Cc1c[nH]c2ccccc12)NC(=O)[C@H](CCCN=C(N)N)NC(=O)[C@H](CCCN=C(N)N)NC(=O)[C@H](Cc1c[nH]c2ccccc12)NC(=O)[C@H](CCCN=C(N)N)NC(=O)[C@H](CCCN=C(N)N)NC(=O)[C@H](Cc1c[nH]c2ccccc12)NC(=O)[C@H](Cc1c[nH]c2ccccc12)NC(=O)CN)C(N)=O [GWWRRWRRWWA]
7 | 6.3 (≈ 9.2 µg/mL) | 12.5 (≈ 18.3 µg/mL) | 25 (≈ 36.5 µg/mL) | ≥ 50 | ≥ 50 | 25 (≈ 36.5 µg/mL) | ≥ 50 | > 50 | > 50 | – | – | – | – | – | – | – | – | – | – | – | – | CC(C)C[C@H](NC(=O)[C@H](C)NC(=O)CNC(=O)[C@H](CC(C)C)NC(=O)[C@@H](N)CCCCN)C(=O)N[C@@H](Cc1c[nH]c2ccccc12)C(=O)N[C@@H](CC(N)=O)C(=O)N[C@H](C(=O)N[C@@H](C)C(=O)N[C@@H](CCCCN)C(=O)N[C@@H](CO)C(=O)N[C@@H](CCCCN)C(=O)N[C@@H](Cc1ccccc1)C(N)=O)C(C)C [KLGALWNVAKSKF]
8 | – | – | – | – | – | – | – | – | – | > 22 | 10 (≈ 14.8 µg/mL) | 22 (≈ 32.5 µg/mL) | – | – | – | – | – | – | – | – | MIC [10]: 5 µM (≈ 7.39 µg/mL); MIC [11]: 22 µM (≈ 32.5 µg/mL); MIC [12]: 11 µM (≈ 16.3 µg/mL); MIC [13]: 11 µM (≈ 16.3 µg/mL); MIC [14]: 22 µM (≈ 32.5 µg/mL) | CC(C)C[C@H](NC(=O)[C@H](C)NC(=O)CNC(=O)[C@@H](NC(=O)[C@@H](NC(=O)[C@H](CCCCN)NC(=O)[C@H](CCCCN)NC(=O)[C@H](CC(C)C)NC(=O)[C@H](CC(C)C)NC(=O)[C@H](CCCCN)NC(=O)[C@H](CC(C)C)NC(=O)[C@H](CC(C)C)NC(=O)[C@@H](N)CCCCN)C(C)C)C(C)C)C(=O)NCC(N)=O [KLLKLLKKVVGALG]
9 | – | – | – | – | – | – | – | – | – | – | – | – | – | – | – | – | – | – | – | – | MIC [25]: 200 µM (≈ 274 µg/mL); MIC [26]: ≥ 200 µM | NCCCC[C@H](NC(=O)[C@H](CCCCN)NC(=O)[C@H](Cc1c[nH]c2ccccc12)NC(=O)[C@H](CCCCN)NC(=O)[C@H](CCCN=C(N)N)NC(=O)[C@H](CCCN=C(N)N)NC(=O)[C@H](Cc1c[nH]c2ccccc12)NC(=O)[C@H](CCCCN)NC(=O)[C@@H](N)CCCN=C(N)N)C(N)=O [RKWRRKWKK]
10 | – | – | – | – | – | – | – | – | 2 (≈ 3.29 µg/mL) | 8 (≈ 13.2 µg/mL) | – | 2 (≈ 3.29 µg/mL) | 1 (≈ 1.64 µg/mL) | 16 (≈ 26.3 µg/mL) | 2 (≈ 3.29 µg/mL) | 4 (≈ 6.58 µg/mL) | 2 (≈ 3.29 µg/mL) | 2 (≈ 3.29 µg/mL) | 2 (≈ 3.29 µg/mL) | 2 (≈ 3.29 µg/mL) | MIC [19]: 1 µM (≈ 1.64 µg/mL); MIC [20]: 8 µM (≈ 13.2 µg/mL); MIC [21]: 8 µM (≈ 13.2 µg/mL); MIC [22]: 4 µM (≈ 6.58 µg/mL); MIC [23]: 8 µM (≈ 13.2 µg/mL); MIC [24]: 4 µM (≈ 6.58 µg/mL) | C[C@H](NC(=O)[C@H](CCCN=C(N)N)NC(=O)[C@H](Cc1c[nH]c2ccccc12)NC(=O)[C@H](CCCN=C(N)N)NC(=O)[C@H](Cc1c[nH]c2ccccc12)NC(=O)[C@H](Cc1c[nH]c2ccccc12)NC(=O)[C@H](Cc1c[nH]c2ccccc12)NC(=O)[C@H](CCCN=C(N)N)NC(=O)[C@H](Cc1c[nH]c2ccccc12)NC(=O)[C@@H](N)CCCN=C(N)N)C(N)=O [RWRWWWRWRA]
